Consider four molecules from patent US9885060B2, “Alkene production” (Evonik Degussa GmbH, priority 2015, dated 2018).

The subject of this test is OleT. The test is described as follows: Decarboxylation of FAs C22 to C4 employing the FDH-CamAB-OleT redox-cascade. Format: biochemical. The protocol: Enzymatic reactions (1 mL scale) were quenched by addition of 100 μL 5 N Extraction of substrate and products was performed with 500 μL EtOAc containing 0.1% 1-decanol as internal standard. The organic phase was dried over anhydrous Na2SO4. Derivatization of carboxylic acids (fatty acids and hydroxy acids) to the corresponding methyl esters was achieved by mixing the organic phase with MeOH (2.5:1.5 v/v) followed by supplementation of 5 to 15 μL of 2 M TMSCHN2 (trimethylsilyldiazomethane in diethyl ether). The mixture was incubated for 30 min, 25° C. and 750 rpm before injection into GC-FID or GC-MS, Extraction and derivatization of products and substrates from conversion of short chain FAs ([…]) was performed using the same protocol but all steps were performed on ice to prevent undesired loss of volatile products.
Products from FA substrates with chain lengths ranging from C22 to C10 were separated on a HP5 column (Programm) and detected by GC-FID or GC-MS. Extracted products from conversion of nonanoic acid (I-octene as product) were separated on a DB1702 column (Programm) and detected by GC-FID. Authentic standards of substrates and terminal olefins were treated as described above and were used as references for identification and preparation of calibration curves. Detection of volatile short chain terminal olefins (1-butene/1-propene [ongoing] to 1-heptene) was accomplished by manual injection from vial headspaces into GC-MS, in order to prevent loss of products, the vials containing the reaction mixtures were sealed with a PTFE septum. After conversion the closed vial was heated for 10 min at 80° C., together with a 10 ml syringe (TYPE). From the headspace 2 to 9 μl volumes were injected splitless into a GC-MS chromatograph and analytes were separated on a HP5 column (Programm). Calibration curves for 1-pentene, 1-hexene and 1-heptene were prepared in the same way at 4° C. and using 5% DMF as cosolvent.
The substrate scope of OleT was further investigated by varying the FA chain length from C3 to C22. […] For the first time, short EAs could be decarboxylated to the corresponding olefins, covering the whole spectrum from C11 down to C4. […] Due to the high volatility of short chain olefins, product work up was done at 4° C. […] (2.53 mM product from 5 mM lauric acid). Head-space analysis by GC-MS from reactions with short chain FAs (C8-C5) confirmed the formation of the respective α-olefins, allowing the first biotechnological access to 1-heptene, 1-hexene and 1-pentene and 1-butene with OleT.
Conversion of heptanoic acid was carried out as described in Example 4 using the OleTCamAB-FDH reaction cascade.
Calibration curves for 1-hexene were prepared accordingly ranging from 0.05 to 2 mM. Due to a strong overlap of […] with the peak areas of CO2 and EtOH (FIG. 1, peaks a, b and c) the ion extraction mode of the GC-MS to generate reliable calibration curves was used. Neither CO2 nor EtOH interfered with the product peak area. This can be seen comparing FIGS. 1 and 5 which allow reliable and linear quantification of 1-hexene (FIG. 6) using manual headspace GC-MS injection.
Manual headspace injection into GC-MS was successfully performed for all substrates with chain lengths of C11 to C6. Conversion of 10 mM heptanoic acid allowed reliable formation of up to 1.3 mM 1-hexene without further optimization of the reaction conditions.

Under “4 °C, 72 h, 10 mM substrate”, `CCCCCC(=O)O` [C6, caproic acid/hexanoic acid] showed a Conversion of 7.7% and a α-Olefin of 772 µM. For the setting “25 °C, 24 h, 10 mM substrate”, this molecule returned a Conversion of 12% and a α-Olefin of 1170 µM.

For `CCCCCCC(=O)O` [C7, heptanoic acid], where the note is “10 mM heptanoic acid, manual headspace GC-MS”, the “formation of 1-hexene” value was “up to 1.3 mM”. Where the note is “4 °C, 72 h, 10 mM substrate”, this molecule returned a Conversion of 9.5% and a α-Olefin of 946 µM. Moreover, under “25 °C, 24 h, 10 mM substrate”, the Conversion was found to be 13% and the α-Olefin stood at 1298 µM.

For the setting “4 °C, 72 h, 10 mM substrate”, `CCCCCCCC(=O)O` [C8, caprylic acid/octanoic acid] yielded a Conversion of 1.4% and a α-Olefin of 141 µM. Also, for the setting “25 °C, 24 h, 10 mM substrate”, the Conversion is listed as 3.6% and the α-Olefin worked out at 364 µM.

As for `CCCCCCCCC(=O)O` [C9, nonanoic acid], where the note is “4 °C, 72 h, 10 mM substrate”, the Conversion is given as 13% and the α-Olefin was 1347 µM. Also, under “25 °C, 24 h, 10 mM substrate”, the Conversion was 18%, the “Selectivity α-OH” value is 17 % GC-area, the “Selectivity α-Olefin” value was found to be 53 % GC-area and the “Selectivity β-OH” value is recorded as 30 % GC-area. The α-Olefin (25 °C, 24 h, 10 mM substrate) turned out to be 1829 µM.
